From patent publication US10392398B2, “Inhibitors of Late SV40 Factor (LSF) as cancer chemotherapeutics” (TRUSTEES OF BOSTON UNIVERSITY, priority 2010, dated 2019)
Where two headings read alike, the source gives them in different places.

Columns and labels:
LSF [1] = biological target: T1, LSF (Homo sapiens, UniProt Q12800); experiment: Cellular Thermal Shift Assay (CETSA), LSF; format: binding; design: expressed in transfected cells
T1 sequence (Q12800 1-502): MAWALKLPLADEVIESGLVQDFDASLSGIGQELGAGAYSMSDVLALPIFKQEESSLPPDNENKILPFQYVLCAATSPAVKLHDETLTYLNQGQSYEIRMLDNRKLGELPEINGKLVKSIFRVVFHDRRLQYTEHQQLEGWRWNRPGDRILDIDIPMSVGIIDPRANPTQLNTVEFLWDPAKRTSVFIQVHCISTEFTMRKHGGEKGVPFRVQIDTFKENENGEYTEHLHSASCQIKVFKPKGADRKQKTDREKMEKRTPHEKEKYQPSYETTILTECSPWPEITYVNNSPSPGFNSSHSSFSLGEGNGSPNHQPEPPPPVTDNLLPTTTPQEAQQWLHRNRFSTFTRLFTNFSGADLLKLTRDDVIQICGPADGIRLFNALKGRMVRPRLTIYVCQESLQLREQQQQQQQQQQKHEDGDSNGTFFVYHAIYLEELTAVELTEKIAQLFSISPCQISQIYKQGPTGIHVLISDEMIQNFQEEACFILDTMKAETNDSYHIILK
Procedure: Drug-target engagement was assessed using CETSA as described by Molina et al. (Monitoring Drug-Target Engagement in Cells and Tissues Using Cellular Thermal Shift Assay. Science (2013) 341, 84-87). QGY-7703 cells were cultured at 37° C. in 5% CO2 in DMEM (Dulbecco's modification of Eagle's Medium; Corning) supplemented with 10% Fetal Bovine Serum (FBS; Invitrogen). Cells were seeded into 10 cm plates and allowed to reach 60-80% confluency. After trypsinization (0.05% Trypsin-EDTA, Invitrogen), cell pellet was washed twice with ice-cold 1×PBS (137 mM NaCl, 2.7 mM KCl, 10 mM Na2HPO4, 2 mM KH2PO4, pH 7.2). Cell pellet was lysed by addition of 200 μL freshly prepared ice-cold RIPA buffer (10 mM Tris-Cl pH 8.0, 1 mM EDTA, 0.5 mM EGTA, 1% Triton X-100, 0.1% sodium deoxycholate, 0.1% SDS, 140 mM NaCl) supplemented with 1 mM Pefabloc (Sigma-Aldrich), and flash frozen in liquid nitrogen and thawed for a total of three cycles. Cell lysate was centrifuged at 20,000×g for 20 minutes to clarify. Supernatant was either treated immediately or saved at −80° C. for future use. […]
Immunoblots were quantified using Image J and graphed using GraphPad PRISM. Area-under-the-curve (AUC) for the quantified western blots were calculated with GraphPad PRISM and non-parametric t-test was calculated to determine statistical significance between the curves. […]

QGY-7703 cells = experiment: Cell viability GI50 (MTS), QGY-7703; format: cell-based; settings: Homo sapiens
Procedure: QGY-7703 and A549 cells were cultured at 37° C. in 5% CO2 in DMEM (Dulbecco's modification of Eagle's Medium; Corning) supplemented with 10% Fetal Bovine Serum (FBS; Invitrogen). NIH-3T3 cells were cultured at 37° C. in 5% CO2 in DMEM supplemented with 10% Fetal Calf Serum (FCS; Atlanta Biologicals). For cell viability assays, 1,500 cells were seeded in 96-well plates and treated with FQI-34 or vehicle (DMSO) at appropriate concentrations (DMSO at 1%) after 20 hours. After 72-hour incubation with compound or vehicle, cell growth was assessed via the Promega CellTiter 96® AQueous One Solution Cell Proliferation Assay, a colorimetric method to determine the number of viable cells. 20 μL of the CellTiter 96® AQueous One Solution Reagent was added directly into cultured wells and incubated for one hour, after which the absorbance at 490 nm was read with a 96-well plate reader (Opys MR Microplate Reader). The CellTiter 96® AQueous One Solution contains an MTS tetrazolium compound which is bioreduced by cells into a colored formazan product that is soluble in tissue culture medium. The quantity of formazan product as measured by absorbance is directly proportional to the number of living cells in culture. GI50 values were determined from plots of the percentage of compound-treated cell growth to vehicle cell growth vs. compound concentration (GraphPad Prism; non-linear regression 4-parameter curve fit with variable slope).

LSF [2] = biological target: T1, LSF; experiment: Chromatin immunoprecipitation of myc-LSF-HA binding to the endogenous POLA1 promoter; format: cell-based; design: expressed in transfected cells; settings: human cell line
Procedure: USF-dependent reporter assays were performed with FQI1 only. Averages with standard deviation (SD) derive from 3-4 independent experiments. […] “−LSF”: translation extract with no programmed LSF. […] Myc-LSF-HA expression was induced with the small molecule inducer RSL1. In induced cells, FQI1 or vehicle was added for the final 12 h of myc-LSF-HA induction.

[3] = system: primary mouse hepatocytes; experiment: Primary mouse hepatocytes, growth and toxicity; format: cell-based
Excerpt: Averages with SEM of three experiments are shown. *P<0.05, by one-tailed t-test. […] The cells were imaged separately for TUNEL-positivity and DNA at the top. Below: Merged images; green for TUNEL (Terminal deoxynucleotidyl transferase dUTP nick end labeling) staining, blue for DAPI (4′,6-diamidino-2-phenylindole) staining. […] Binucleate cells are common for adult hepatocytes.

LSF [4] = biological target: T1, LSF; experiment: Electrophoretic mobility shift assay (EMSA) of LSF DNA-binding; format: biochemical; settings: in vitro translated LSF
Procedure: LSF was translated in vitro as previously described^16 for use in EMSAs. Protein was preincubated with inhibitor or DMSO and then incubated with 0.5 μg poly d(I-C) for 15 min at 4° C. in 40 mM KCl, 15 mM HEPES pH 7.9, 1 mM EDTA, 0.5 mM DTT, 5% glycerol. Finally, radiolabelled double-stranded DNA ([…]—SEQ ID NO: 5- and its complement) were added for a 30-min incubation at 30° C. Results were visualized using a PhosphorImager and quantified using ImageQuant software.

SMILES	binding to LSF by CETSA (LSF [1]; QGY-7703 lysate, 500 μM)	LSF CETSA (LSF [1]; Table 5, YES/NO)	GI50 (QGY-7703 cells; 72-hour incubation, MTS, read-out: GI50 in QGY-7703 cells) [nM]	GI50 (QGY-7703 cells; Table 5, read-out: QGY-7703 GI50) [nM]	GI50 (QGY-7703 cells; Table 8, read-out: QGY-7703 GI50) [nM]	binding of inducible HA-tagged LSF to the POLA1 promoter (ChIP) (LSF [2])	growth consequences or toxicity in primary non-dividing mouse hepatocytes [3]	modulation of LSF DNA-binding in EMSA (LSF [4])
CCOc1cc(N(C)C)ccc1C1CC(=O)Nc2cc3c(cc21)OCO3 (centres unmarked) [FQI-34, 8-(4-(dimethylamino)-2-ethoxyphenyl)-7,8-dihydro-[1,3]dioxolo[4,5-g]quinolin-6(5H)-one]	directly binds	YES	260	260	260	–	–	–
CCOc1ccccc1C1CC(=O)Nc2cc3c(cc21)OCO3 (racemic) [FQI1, 8-(2-ethoxyphenyl)-7,8-dihydro-[1,3]dioxolo[4,5-g]quinolin-6(5H)-one]	–	–	–	–	–	efficiently blocked	No growth consequences or toxicity	initial enhancement at low concentrations and inhibition at higher concentrations
